Experimental findings from paper PMC6548335 (ACS infectious diseases, 2019) are described below.

A short description of series [1]: Hepatic microsomal stability. The class given is in vitro ADME. The following applies: mouse, liver microsomes, pH 7.4. On the technique in general: Liver microsomes are a subcellular fraction often used to study metabolism.
The next series relates to DENV2 NGC. Put plainly: microbe, parasite or virus in culture. The following applies: Dengue virus, DENV2, BHK-21, read-out: IC90 (μM) [DENV2 NGC). The class given is cell-based, dengue virus 2 (BHK-21 cells).
For series [2], the system named is malate dehydrogenase (MDH). Put plainly: Malate dehydrogenase. The class given is biochemical. The note with it: presence and absence of Triton X-100.
The test system of the next series is BHK-21 cells. Description: Cytotoxicity assay. The class given is cell-based, baby hamster. The following applies: for CC5: 50% loss of BHK-21 cell viability; for CC50 relative to antiviral IC90: BHK-21 CC50 vs DENV2 IC90.
For series [3], the target named is soluble, prefusion DENV2 envelope protein (sE2) (Dengue virus type 2, UniProt P14340). Put plainly: Biolayer interferometry binding to sE2. More on the design: species or system dengue virus 2. On the technique in general: Biolayer interferometry detects binding as a change in optical thickness at a sensor tip.
A short description of the next series: Plasma-protein binding. The class given is in vitro ADME.
In series [4] the test system is E-mediated membrane fusion of DENV2, strain NGC. The following applies: 0, 10, 50 μM compound, pH 5.3, Western blot. For orientation: In western blotting, separated proteins are transferred to a membrane and probed.
Series [5] in a line: Pharmacokinetic study in mice. The following applies: female, C57BL/6, mouse, intraperitoneal, 20 mg/kg.
Series [6] concerns DENV2 S221. Description: Multi-cycle infection, DENV2 S221. The note with it: 5 μM, MOI 0.01, supernatants at 48 and 72 hours post-infection.
The test system of series [7] is DENV2 S221. Put plainly: Viral infectivity assay, mouse-adapted DENV2 S221. The following applies: Dengue virus, DENV2, BHK-21, read-out: antiviral IC90, DENV2 S221.

SMILES strings stand for the structures. Entries after “also recorded” stand apart in the source; their conditions may differ.

The compound `CN1CCN(c2ccc(N/N=C(\C#N)C(=O)c3cc4ccccc4o3)cc2C(F)(F)F)CC1` [JBJ-01-162-01, (E)-2-(benzofuran-2-yl)-N-(4-(4-methylpiperazin-1-yl)-3-(trifluoromethyl)phenyl)-2-oxoacetohydrazonoyl cyanide] gave a half-life at 1 μM in series [1] of 35.1 min.
Consider `CN1CCN(c2cc(N/N=C(\C#N)C(=O)c3cc4ccccc4o3)cc(C(F)(F)F)c2)CC1` [JBJ-01-162-02, (E)-2-(benzofuran-2-yl)-N-(3-(4-methylpiperazin-1-yl)-5-(trifluoromethyl)phenyl)-2-oxoacetohydrazonoyl cyanide], for which, in the series on DENV2 NGC, the IC90 is 9 ± 2.8 µM. Moreover, the “detergent-sensitive (non-specific) inhibition of MDH” value in series [2] was “detergent-sensitive inhibition of malate dehydrogenase comparable to that of 3-110-22”. Further, in [1], the half-life at 1 μM amounted to 73 min. Besides, the “CC5” value in the series on BHK-21 cells was found to be 24.5 ± 7.2 µM.
For the compound `N#C/C(=N\Nc1ccc(N2CCOCC2)c(C(F)(F)F)c1)C(=O)c1cc2ccccc2o1` [JBJ-01-162-03, (E)-2-(benzofuran-2-yl)-N-(4-morpholino-3-(trifluoromethyl)phenyl)-2-oxoacetohydrazonoyl cyanide], the IC90 with DENV2 NGC was found to be 1.6 ± 0.7 µM. In addition, the “detergent-sensitive (non-specific) inhibition of MDH” value in [2] is “detergent-sensitive inhibition of malate dehydrogenase comparable to that of 3-110-22”. In [1], the half-life at 1 μM is above 120 min. In the series with BHK-21 cells, the “CC5” value stood at 32.5 ± 2.2 µM and the “CC50 relative to antiviral IC90” value was at least 20 fold.
On to `Cc1cn(-c2cc(N/N=C(\C#N)C(=O)c3cc4ccccc4o3)cc(C(F)(F)F)c2)cn1` [JBJ-01-162-04, (E)-2-(benzofuran-2-yl)-N-(3-(4-methyl-1H-imidazol-1-yl)-5-(trifluoromethyl)phenyl)-2-oxoacetohydrazonoyl cyanide], for which the IC90 with DENV2 NGC is 1.5 ± 0.4 µM; in the series on DENV2 S221 [7], 1.4 ± 0.6 µM. In addition, the “detergent-sensitive (non-specific) inhibition of MDH” value in series [2] is on record as “lacks this non-specific activity; also recorded: Slight inhibition of MDH”. Further, the half-life at 1 μM in series [1] amounted to 64.8 min. Besides, the “CC50 relative to antiviral IC90” value in the series on BHK-21 cells is reported as at least 20 fold. Moreover, the Kd in series [3] came to 1.4 ± 0.5 µM. In the series “Plasma-protein binding”, the fraction unbound is below 0.001. Besides, the “inhibition of E-mediated fusion (protection of core from trypsin digestion), DENV2” value in series [4] is recorded as “inhibits E-mediated fusion of DENV2 in a concentration-dependent manner; also recorded: inhibits viral fusion in the liposome-based assay in a concentration-dependent manner”. In addition, the concentration at 4 h in [5] (liver) is 37.2 µM; in series [5] (plasma) it was 75.8 µM. In addition, the concentration at 12 h in series [5] (liver) was determined as 13 µM; in [5] (plasma), 2.9 µM. Also, the “reduction of viral yield in multi-cycle infection” value with DENV2 S221 [6] is on record as “over 95%”.
In series [1], `CCN1CCN(Cc2ccc(N/N=C(\C#N)C(=O)c3cc4ccccc4o3)cc2C(F)(F)F)CC1` [JBJ-01-162-05, (E)-2-(benzofuran-2-yl)-N-(4-((4-ethylpiperazin-1-yl)methyl)-3-(trifluoromethyl)phenyl)-2-oxoacetohydrazonoyl cyanide] had a half-life at 1 μM of 29.9 min.
Still for that read-out and setting: for `N#C/C(=N\Nc1ccc(F)c(C(F)(F)F)c1)C(=O)c1cc2ccccc2o1` [JBJ-03-019-01, (E)-2-(benzofuran-2-yl)-N-(4-fluoro-3-(trifluoromethyl)phenyl)-2-oxoacetohydrazonoyl cyanide] the value was 7.6 min; for `N#C/C(=N\Nc1cc(F)cc(C(F)(F)F)c1)C(=O)c1cc2ccccc2o1` [JBJ-03-019-02, (E)-2-(benzofuran-2-yl)-N-(3-fluoro-5-(trifluoromethyl)phenyl)-2-oxoacetohydrazonoyl cyanide], 8.6 min.

As a reminder, the half-life is how long it takes for the measured level to halve. For orientation: IC90 means the point of the concentration-response curve where the effect stands at 90%. What is called Kd is a measure of binding affinity in units of concentration. High values mean weaker binding, low ones tighter binding. By fraction unbound is commonly meant free concentration divided by total concentration. Lower therefore signals extensive binding.
